Measurements reported in patent US20200206198A1, “CFTR CHANNEL ACTIVATOR FOR USE IN THE TREATMENT AND/OR PREVENTION OF GLUTEN SENSITIVITY CONDITIONS” (priority 2017, published 2020).

Test system: Caco-2 cells
Experiment: Innate immune activation in Caco-2 cells (NLRP3, caspase-1, IL-15, NF-κB p65)
Assay type: cell-based, human
Protocol: Human colon adenocarcinoma-derived Caco-2 and T84 cells were obtained from the ATCC. Cells were maintained in T25 flask in Modified Eagle Medium (MEM) for Caco-2, or Ham's F12+DMEM (1:1) for T84, supplemented with 10% fetal bovine serum (FBS), 2 mM Glutamine+1% Non Essential Amino Acids (NEAA) and the antibiotics penicillin\streptomycin (100 units/ml) (all reagents from Lonza) (Luciani, A., et al. 2010. Cells were grown in Transwells (Corning, 3470 or 3460) under the normal condition (Luciani, A., et al. 2012). Briefly, 8×10^4 or 5×10^5 cells were seeded in 6.5-mm diameter or 12-mm diameter, respectively, and grown until the RT reached 800 to 1,200 Ω·cm2. Transwells with a pore size of 0.4 μm were used. Medium in both the apical and basolateral chambers was changed every other day. Cells were treated with 20 μg/ml of either α-gliadin peptide P31-43 or […]-69 or scrambled PGAV or modified P31-43 either biotin-tagged or not, for different time point (from 1 h short challenge up to 24 h). Cells were also treated with 50 or 100 μg/ml of […]-68 or PGAV peptides for 3 h. Caco-2 or T84 cells were also treated with: CFTR potentiators VX-770 (10 μM) or VX-532 (20 μM) (Selleck chemicals) or Genistein (10 μM) (Sigma-Aldrich) or in presence or absence of CFTR inhibitor172 (CFTRinh172, 20 μM) or 3-methyl-adenine (3-MA, 20 μM) (Calbiochem), Z-DON (20 nM, Zedira) or BAPTA-AM (10 μM, Calbiochem). The whole lysate or membrane fraction proteins of cell lines and mice intestine homogenates were obtained from treated and untreated cells or mice as described. The equal amount of protein were resolved by SDS-PAGE gel and blotted with antibodies against: SQSTM1, (Sigma Aldrich, 108k4767) 1:1000, PPARγ (Santa Cruz Biotechnology, sc7273) 1:500, BECN1 (Abcam, ab58878) 1:1000, CFTR clone M3A7 (Abcam, ab4067) 1:500, phospho-ERK1/2 (php42/44, Cell Signaling Technology, #91101) 1:1000, UVRAG (Santa Cruz Biotechnology sc8215) 1:1000, NHERF-1 (BD, 611161) 1:1000, EZRIN (BD, 610603) 1:1000, hVps34 (SigmaV9764) 1:300, biotin (Abcam, ab1227) 1:2000, PKAr2a (BD, 610625) 1:500, Ubiquitin (Cell Signaling clone P4D1, #3936) 1:1000, CHIP (Calbiochem PC711) 1:500, Caspase-1 p10 (M-20) (Santa Cruz Biotechnology, sc-514) 1:200, NLRP3 (Abcam, ab4207), 1:500, IDO1 (monoclonal; cv152) 1:1000^[80], used as primary antibodies. Normalization was performed by probing the membrane with anti-β-actin (Cell Signaling, #4970) 1:1000, anti-Gapdh (Sigma-Aldrich, G8795) 1:1000 and anti-flottilin (Abcam ab15148) 1:1000 antibodies. Immunoprecipitations of endogenous proteins were performed on 500 μg of lysates from Caco-2 cells. The proteins were incubated for 12-18 h at 4° C. with 10 ug\ml of specific antibody followed by the addition of Protein A/G-agarose beads for 4 h at 4° C. The beads were then washed three times with lysis buffer and Laemmli's sample buffer was added to the samples. The membranes were then blotted with: CFTR clone CF3 (Abcam, ab2784) 1:1000, TG2 (clone CUB7402; NeoMarkers) 1:1000, CHIP (Calbiochem PC711) 1:500, Ubiquitin (Cell Signaling clone P4D1 3936), isopeptide (Abcam 422) 1:1000, PKAR2 (BD 610625) 1:500. For cytoplasmic and nuclear extracts human colorectal carcinoma Caco-2 cells were harvested, washed in cold PBS twice, and centrifuged at 6000 rpm for 5 min in cold room to collect pellets. […] The protein concentrations were measured by Bradford protein assay (Protein Reagent, Bio-Rad). […]

Compound | effect on P31-43-induced NF-κB p65 nuclear translocation (Caco-2 cells) | effect on P31-43-induced NLRP3 expression (Caco-2 cells) | effect on P31-43-induced caspase-1 cleavage (Caco-2 cells) | effect on P31-43-induced production of IL-15 (Caco-2 cells, ELISA, p<0.001) | NF-κB p65 translocation into the nucleus (Caco-2 cells after incubation with peptide)
CC(C)(C)c1cc(C(C)(C)C)c(NC(=O)c2c[nH]c3ccccc3c2=O)cc1O [VX-770, N-(2,4-di-tert-butyl-5-hydroxyphenyl)-4-oxo-1,4-dihydroquinoline-3-carboxamide] | suppressed | prevented | prevented | prevented the P31-43-induced production of IL-15 | –
α-gliadin peptide LGQQQPFPPQQPY (SEQ ID 1), induces an enterocyte stress response (P31-43 sequence of alpha-gliadin) | – | – | – | – | NF-κB p65 translocation into the nucleus was observed
